Source: ChEMBL document CHEMBL5236598, “Lead Optimization and Avoidance of Metabolic-perturbing Motif Developing Novel Diarylpyrimidines as Potent HIV-1 NNRTIs” (J Med Chem, 2022)
In brackets after ≈: the same amount, converted by molar mass.

How the values were obtained:
[1] = Selectivity index, ratio of CC50 for cytotoxicity against human MT4 cells to EC50 for antiviral activity against HIV-1 RES056 harboring RT K103N/Y181C double mutant infected in human MT4 cells; assay type: toxicity, cell-based; settings: read-out: Ratio CC50/EC50
[2] = test system: Human immunodeficiency virus 1; test: Antiviral activity against HIV-1 harboring RT E138K mutant infected in human MT4 cells assessed as protection against virus-induced cytopathic effect incubated for 5 days by MTT assay; assay type: functional, organism-based; settings: Human immunodeficiency virus 1, MT4, 120 h
[3] = test system: Human immunodeficiency virus 1; test: Antiviral activity against HIV-1 harboring RT Y188L mutant infected in human MT4 cells assessed as protection against virus-induced cytopathic effect incubated for 5 days by MTT assay; assay type: functional, organism-based; settings: Human immunodeficiency virus 1, MT4, 120 h
[4] = test system: Human immunodeficiency virus 1; test: Antiviral activity against HIV-1 harboring RT Y181C mutant infected in human MT4 cells assessed as protection against virus-induced cytopathic effect incubated for 5 days by MTT assay; assay type: functional, organism-based; settings: Human immunodeficiency virus 1, MT4, 120 h
[5] = test system: Human immunodeficiency virus 1; test: Antiviral activity against HIV-1 harboring RT F227L/V106A double mutant infected in human MT4 cells assessed as protection against virus-induced cytopathic effect incubated for 5 days by MTT assay; assay type: functional, organism-based; settings: Human immunodeficiency virus 1, MT4, 120 h
[6] = test system: Human immunodeficiency virus 1; test: Antiviral activity against HIV-1 harboring RT L100I mutant infected in human MT4 cells assessed as protection against virus-induced cytopathic effect incubated for 5 days by MTT assay; assay type: functional, organism-based; settings: Human immunodeficiency virus 1, MT4, 120 h
[7] = test system: Human immunodeficiency virus 1; test: Antiviral activity against wild type HIV-1 IIIB infected in human MT4 cells assessed as protection against virus-induced cytopathic effect incubated for 5 days by MTT assay; assay type: functional, organism-based; settings: Human immunodeficiency virus 1, IIIB, MT4, 120 h
[8] = test system: Human immunodeficiency virus 1; test: Antiviral activity against HIV-1 harboring RT K103N mutant infected in human MT4 cells assessed as protection against virus-induced cytopathic effect incubated for 5 days by MTT assay; assay type: functional, organism-based; settings: Human immunodeficiency virus 1, MT4, 120 h
[9] = Cytotoxicity against human MT4 cells assessed as reduction in cell viability measured after 5 days by MTT assay; assay type: toxicity, cell-based; settings: time 5 day
[10] = target: T1, Human immunodeficiency virus type 1 reverse transcriptase (Human immunodeficiency virus 1, UniProt Q72547); test: Inhibition of wild type recombinant HIV-1 reverse transcriptase using biotin-labelled dNTPs as substrate assessed as inhibition of biotin-labelled UTP incorporation incubated for 1 hr by ELISA
[11] = test system: Human immunodeficiency virus 1; test: Antiviral activity against HIV-1 RES056 harboring RT K103N/Y181C double mutant infected in human MT4 cells assessed as protection against virus-induced cytopathic effect incubated for 5 days by MTT assay; assay type: functional, organism-based; settings: Human immunodeficiency virus 1, RES056, MT4, 120 h
[12] = Selectivity index, ratio of CC50 for cytotoxicity against human MT4 cells to EC50 for antiviral activity against wild type HIV-1 IIIB infected in human MT4 cells; assay type: toxicity, cell-based; settings: read-out: Ratio CC50/EC50
[13] = test system: Human immunodeficiency virus 1; test: Potency index, ratio of Etravirine EC50 to test compound EC50 for antiviral activity against HIV-1 harboring RT K103N mutant infected in human MT4 cells assessed as protection against virus-induced cytopathic effect incubated for 5 days by MTT assay; assay type: functional; settings: time 5 day
[14] = test system: Human immunodeficiency virus 1; test: Potency index, ratio of Etravirine EC50 to test compound EC50 for antiviral activity against HIV-1 harboring RT E138K mutant infected in human MT4 cells assessed as protection against virus-induced cytopathic effect incubated for 5 days by MTT assay; assay type: functional; settings: time 5 day
[15] = Aqueous solubility of compound at pH 2 at 0.1 to 10 mg; assay type: physicochemical; settings: aqueous medium, dose 0.1-10 mg
[16] = Aqueous solubility of compound at pH 7.4 at 0.1 to 10 mg; assay type: physicochemical; settings: aqueous medium, dose 0.1-10 mg
[17] = target: T1, Human immunodeficiency virus type 1 reverse transcriptase; test: Binding affinity to HIV-1 reverse transcriptase assessed as dissociation constant by SPR analysis
[18] = Aqueous solubility of compound at pH 7 at 0.1 to 10 mg; assay type: physicochemical; settings: aqueous medium, dose 0.1-10 mg

Structure (SMILES) | selectivity ratio [1] | EC50 [2] | EC50 [3] | EC50 [4] | EC50 [5] | EC50 [6] | EC50 [7] | EC50 [8] | CC50 at 120 h [9] | IC50 [10] | EC50 [11] | selectivity ratio [12] | Ratio EC50 [13] | Ratio EC50 [14] | solubility [15] | solubility [16] | Kd [17] | solubility [18]
Cc1cc(/C=C/C#N)cc(C)c1Oc1nc(Nc2ccc(C#N)nc2)nc2c1COC2 | 2980 | 3.23 nM | 44.6 nM | 9.75 nM | 110 nM | 6.64 nM | 2.4 nM | 1.34 nM | 213000 nM | 40 nM | 71.7 nM | 88900 |  |  |  |  |  | 
N#C/C=C/c1cc(F)c(Oc2nc(Nc3ccc(C#N)nc3)nc3ccsc23)c(F)c1 | 22 | 7.46 nM | > 47500 nM | 66.5 nM | 1450 nM | 19.2 nM | 1.79 nM | 2.55 nM | 47500 nM | 40 nM | 2200 nM | 26500 | 2 | 2 |  |  |  | 
N#C/C=C/c1cc(F)c(Oc2nc(Nc3ccc(C#N)c(F)c3)nc3c2COC3)c(F)c1 | 773 | 3.45 nM | 214 nM | 13.9 nM | 384 nM | 6.9 nM | 1.67 nM | 2.41 nM | 243000 nM | 30 nM | 314 nM | 145000 |  |  |  |  |  | 
Cc1cc(/C=C/C#N)cc(C)c1Oc1nc(Nc2ccc(C#N)c(F)c2)nc2c1COC2 | 857 | 9.77 nM | 13.2 nM | 10.2 nM | 19.8 nM | 3.04 nM | 2.22 nM | 2.87 nM | 45600 nM | 50 nM | 53.3 nM | 20600 |  |  | 23.1 µg/mL (≈ 54 µM) | 5.7 µg/mL (≈ 13.3 µM) | 2500 nM | 12.3 µg/mL (≈ 28.8 µM)
